Experimental data as given in PMC4315423 (Journal of Medicinal Chemistry, 2014).
In brackets after ≈: the same amount, converted by molar mass.

Legend:
[1] = aqueous kinetic solubility; format: physicochemical; details: PBS aqueous buffer
[2] = in vivo pharmacokinetics, plasma and brain, single ip dose in male C57BL/6 mice; design: species or system mouse; details: ip 30 mg/kg

Structure (SMILES): CN1C(=O)c2ccccc2[S@+]([O-])c2ccc(C(=O)NCCc3cccs3)cc21 [compound 65, 10-Methyl-11-oxo-N-(2-(thiophen-2-yl)ethyl)-10,11-dihydrodibenzo[b,f][1,4]thiazepine-8-carboxamide 5-(S)-Oxide]
- solubility kinetic [1]: 46.5 µg/mL (≈ 113 µM)
- time to reach brain Cmax ([2]; brain, C57BL/6 mice): ≤ 15 min
- behavioural observation after dosing ([2]; male C57BL/6 mice, at 5 min after dosing, lasted for about 2 h): appeared less active
